This is an account of results in patent US20090215708A1, “Treatment of Sexual Dysfunction with Proton Pump Agonists” (priority 2008, published 2009).

The subject of data set [1] is subject with sexual dysfunction related to penis size below the 10th percentile. As to the kind of experiment: Daily oral cinchomeronic acid in a subject with penis size below the 10th percentile. Format: in vivo, human. From the text: A subject who has reported long-term sexual dysfunction related to a penis size below the 10th percentile is given an oral formulation of cinchomeronic acid, at a daily dose sufficient to maintain therapeutic blood levels of the agent.

Data set [2] concerns proton pump (plasma membrane H+ ATPases). As to conditions: plants; cited from earlier work.
For data set [3], the system named is subject diagnosed with Female Sexual Arousal Disorder (FSAD). As to the kind of experiment: Daily oral fusicoccin in a subject with Female Sexual Arousal Disorder. The class given is in vivo, human. To be noted: daily oral formulation. From the text:
A subject who has been diagnosed with Female Sexual Arousal Disorder (FSAD) for over 6 months is given a daily oral formulation of fusicoccin, at a dose sufficient to maintain therapeutic blood levels of the agent. […] The use of this preparation is well accepted by both the subject and partner.

Regarding `O=C(O)c1ccncc1C(=O)O` [cinchomeronic acid, 3,4-dicarboxypyridine], the adverse side effects result in data set [1] is “no adverse side effects”. In addition, the “penile circumference and length compared to before treatment” value in data set [1] (two months after beginning treatment) is on record as “measurable increase”.

Turning to `C=CC(C)(C)OC[C@H]1O[C@H](O[C@@H]2C3=C([C@H](C)COC(C)=O)C[C@H](O)[C@]3(C)/C=C3/[C@@H](COC)CC[C@H]3[C@@H](C)[C@H]2O)[C@H](O)[C@@H](OC(C)=O)[C@@H]1O` [fusicoccin], the “proton pumping across the plasma membrane” value in data set [2] is on record as “activate”. Also, the adverse side effects entry in data set [3] is on record as “without adverse side effects”. Besides, the “symptoms, including lubrication-swelling response during sexual activity” value in data set [3] (one week after beginning treatment) is “significant improvement in symptoms”.
